From publication PMC11035696, “Prospective de novo drug design with deep interactome learning” (Nature Communications, 2024)

Legend:
PPARγ LBD protein = target: T1, PPARγ LBD protein (Homo sapiens, UniProt P37231); test: Isothermal titration calorimetry (ITC); format: binding
T1 construct: PPARγ LBD protein (30 μM, prepared as described previously[106]); made in house
Protocol: (§1) Compounds 1–3 were characterized in a hybrid reporter gene assay for their agoniztic effect on human nuclear receptors PPARα/γ/δ, RXRα, FXRα, RARα in HEK293T cells. Compound 1 was tested in an isothermal titration calorimetry (ITC) assay to measure direct binding affinity to the ligand-binding domain of PPARγ. ADME properties were measured in standardized assays at Roche.
ITC experiments were conducted on an Affinity ITC instrument (TA Instruments, New Castle, DE) at 25 °C with a stirring rate of 75 rpm. PPARγ LBD protein (30 μM, prepared as described previously[106]) in buffer (20 mM Tris pH 7.5, 150 mM NaCl, 5% glycerol) containing 5% DMSO was titrated with the test compound (1) (100 μM in the same buffer containing 5% DMSO) in 21 injections (1 × 1μl and 20 × 5μl) with an injection interval of 120 s. The test compound was titrated into buffer, and the buffer was titrated to the PPARγ LBD proteins under otherwise identical conditions. The ITC results were analyzed using NanoAnalyze software (TA Instruments, New Castle, DE) with an independent binding model.

[1] = Parallel artificial membrane permeability assay (PAMPA); format: in vitro ADME; conditions: PAMPAPEFF permeation coefficient
Protocol: as §1
SI11Absorption Distribution Metabolism and Excretion and Toxicity Data
To assess the drug-like characteristics of the newly designed PPAR modulators, a series of tests were conducted covering various aspects of absorption, distribution, metabolism, and excretion (ADME) properties. Specifically, these assessments included the parallel artificial membrane permeability assay (PAMPA) with permeation co- […]
efficients ([…]), LogD measurements, microsomal clearance, hepatocyte clearance, P-glycoprotein (Pgp) efflux ratio and binding and the unbound free fraction. […]
Table S14: Absorption distribution metabolism and excretion (ADME) properties of compounds 1 and 2. The […]
values for […], LogD, protein binding, P-glycoprotein (Pgp) efflux ratio and permeability, and hepato-cyte clearance are presented as the mean and standard deviation, with a sample size of N = 3, i.e., 3 technical replicates each. The values for microsomal clearance and CYP-inhibition represent single point measurements. […]

human PPARα = target: T2, human PPARα (Homo sapiens, UniProt Q07869); test: Gal4-hybrid reporter gene assay, PPARα activation; format: cell-based; conditions: hybrid reporter gene assay, result in words
T2 construct: expressed in transfected cells; host or cells: HEK293T
T2 sequence (Q07869 239-466 limits assumed): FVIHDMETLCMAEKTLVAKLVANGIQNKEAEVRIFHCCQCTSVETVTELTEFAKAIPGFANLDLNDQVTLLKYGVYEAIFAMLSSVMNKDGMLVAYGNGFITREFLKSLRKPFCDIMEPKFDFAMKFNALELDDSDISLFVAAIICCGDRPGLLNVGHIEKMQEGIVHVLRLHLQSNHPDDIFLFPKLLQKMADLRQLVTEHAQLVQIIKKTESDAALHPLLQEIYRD
Protocol: as §1
PPAR activation was determined in uniform Gal4-hybrid reporter gene assays for the PPARα, PPARγ and PPARδ isoforms in HEK293T cells (German Collection of Microorganisms and Cell Culture GmbH, DSMZ) which were transiently transfected with pFR-Luc (Stratagene, La Jolla, CA, USA; reporter) and pRL-SV40 (Promega, Madison, WI, USA; internal control) and one pFA-CMV-hPPAR-LBD[97] clone, coding for the hinge region and ligand binding domain of the canonical isoform of human PPARα, PPARγ, PPARδ or respectively. Cells were cultured in Dulbecco’s modified Eagle’s medium (DMEM), high glucose supplemented with 10% fetal calf serum (FCS), sodium pyruvate (1 mM), penicillin (100 U ⋅ ml^-1), and streptomycin (100 μg ⋅ ml^-1) at 37 °C and 5% CO2 and seeded in 96-well plates (3 × 10^4 cells per well). After 24 h, medium was changed to Opti-MEM without supplements and cells were transiently transfected using Lipofectamine LTX reagent (Invitrogen) according to the manufacturer’s protocol. Five hours after transfection, cells were incubated with the test compounds in Opti-MEM supplemented with penicillin (100 U ⋅ ml^-1), streptomycin (100 μg ⋅ ml^-1) and 0.1% DMSO for 16 h before luciferase activity was measured using the Dual-Glo Luciferase Assay System (Promega) according to the manufacturer’s protocol on a Tecan Spark luminometer (Tecan Deutschland GmbH, Germany). Firefly luminescence was divided by Renilla luminescence and multiplied by 1000 resulting in relative light units (RLU) to normalize for transfection efficiency and cell growth. Fold activation was obtained by dividing the mean RLU of a test compound by the mean RLU of the untreated control. All samples were tested in at least three biologically independent experiments in duplicates. For dose-response curve fitting and calculation of EC50 values, the equation “[Agonist] versus response (variable slope—four parameters)” was used in GraphPad Prism (version 7.00, GraphPad Software, La Jolla, CA, USA) with fold activation data. The reference agonizts GW7647 (PPARα)[98],[99], pioglitazone (PPARγ)[100],[101] and L165,041 (PPARδ)[102],[103] were used to validate the assays and to monitor assay performance. Nuclear receptor selectivity profiling was performed with corresponding pFA-CMV-hNR-LBD clones and suitable reference agonizts on RARα (pFA-CMV-hRARα-LBD[104], 1 μM tretinoin), LXRα (pFA-CMV-hLXRα-LBD[104], 1 μM TO901317) and RXRα (pFA-CMV-h RXRα-LBD[105], 1 μM Bexarotene).

T1 sequence (P37231 238-503 limits assumed): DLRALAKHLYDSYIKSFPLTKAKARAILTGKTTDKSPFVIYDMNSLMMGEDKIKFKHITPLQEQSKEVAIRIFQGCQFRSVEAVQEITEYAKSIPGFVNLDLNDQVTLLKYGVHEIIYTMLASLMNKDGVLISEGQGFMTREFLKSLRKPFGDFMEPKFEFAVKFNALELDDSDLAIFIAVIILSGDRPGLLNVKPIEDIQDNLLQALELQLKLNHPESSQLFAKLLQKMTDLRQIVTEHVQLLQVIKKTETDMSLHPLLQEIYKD

SMILES | molar ratio (ligand per protein) (PPARγ LBD protein) | Kd (PPARγ LBD protein; 25 °C, ligand binding domain of PPARγ, read-out: dissociation constant KD) | Papp [1] | activity on PPARα (human PPARα)
Cc1nnc(-c2ccc(OCCCOc3ccc(CCC(=O)O)c(F)c3)c(F)c2)s1 [Compound 1] | one ligand per protein molecule | 800 ± 100 nM |  | 
COc1ccc(Oc2ccc3ncn(CCOc4ccc(CCC(=O)O)cc4)c3c2)cc1 [Compound 2] |  |  | 3.9 ×10⁻⁶ cm/s | no discernible impact
